Assay results from the supplement of paper PMC10307832.

Assays:
Experiment in all cases: relative viability (nuclei count vs DMSO), 5 days (fraction); higher = more cells survive
Vemurafenib + AZD7762 = compound: CCCS(=O)(=O)Nc1ccc(F)c(C(=O)c2c[nH]c3ncc(-c4ccc(Cl)cc4)cc23)c1F [Vemurafenib] + NC(=O)Nc1cc(-c2cccc(F)c2)sc1C(=O)N[C@H]1CCCNC1 [AZD7762] (partner 0.2 µM)
Summary of the method: (§1)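 Lung cancer cell lines were pin-tool dosed in 1536-well plates on the day after seeding, with either a lone drug or a fixed anchor-drug dose plus five library-drug doses (not always all listed) in √10 steps. Nuclei were counted on 4× images after 5 days. Relative viability is the ratio of treated-well to vehicle-well nuclei counts, with each value a median of duplicate plates.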

OSI-027 + Pemetrexed = compound: COc1cccc2cc(-c3nc([C@H]4CC[C@H](C(=O)O)CC4)n4ncnc(N)c34)[nH]c12 [OSI-027] + Nc1nc2[nH]cc(CCc3ccc(C(=O)N[C@@H](CCC(=O)O)C(=O)O)cc3)c2c(=O)[nH]1 [Pemetrexed] (partner 0.2 µM)
Summary of the method: as §1

Alpelisib + Vorinostat = compound: Cc1nc(NC(=O)N2CCC[C@H]2C(N)=O)sc1-c1ccnc(C(C)(C)C(F)(F)F)c1 [Alpelisib] + O=C(CCCCCCC(=O)Nc1ccccc1)NO [Vorinostat] (partner 1 µM)
Summary of the method: as §1

Vemurafenib + Trametinib = compound: CCCS(=O)(=O)Nc1ccc(F)c(C(=O)c2c[nH]c3ncc(-c4ccc(Cl)cc4)cc23)c1F [Vemurafenib] + CC(=O)Nc1cccc(-n2c(=O)n(C3CC3)c(=O)c3c(Nc4ccc(I)cc4F)n(C)c(=O)c(C)c32)c1 [Trametinib] (partner 0.02 µM)
Summary of the method: as §1

Cell Line	relative viability (Vemurafenib + AZD7762; first compound 0.03162 µM)	relative viability (Vemurafenib + AZD7762; first compound 0.1 µM)	relative viability (Vemurafenib + AZD7762; first compound 0.3162 µM)	relative viability (Vemurafenib + AZD7762; first compound 1 µM)	relative viability (OSI-027 + Pemetrexed; first compound 0.01 µM)	relative viability (OSI-027 + Pemetrexed; first compound 0.03162 µM)	relative viability (OSI-027 + Pemetrexed; first compound 0.1 µM)	relative viability (OSI-027 + Pemetrexed; first compound 0.3162 µM)	relative viability (OSI-027 + Pemetrexed; first compound 1 µM)	relative viability (Alpelisib + Vorinostat; first compound 0.04 µM)	relative viability (Alpelisib + Vorinostat; first compound 0.1265 µM)	relative viability (Alpelisib + Vorinostat; first compound 0.4 µM)	relative viability (Alpelisib + Vorinostat; first compound 1.265 µM)	relative viability (Alpelisib + Vorinostat; first compound 4 µM)	relative viability (Vemurafenib + Trametinib; first compound 0.03162 µM)	relative viability (Vemurafenib + Trametinib; first compound 0.1 µM)	relative viability (Vemurafenib + Trametinib; first compound 0.3162 µM)	relative viability (Vemurafenib + Trametinib; first compound 1 µM)
EPLC-272H	0.251	0.166	0.156	0.218	0.357	0.279	0.263	0.273	0.338	0.474	0.455	0.465	0.209	0.222	0.282	0.323	0.338	0.331
HARA	0.0775	0.292	0.168	0.37	0.249	0.221	0.231	0.227	0.264	0.528	0.52	0.511	0.305	0.391	0.742	0.325	0.71	0.757
LU99A	0.369	0.353	–	0.385	0.181	0.362	0.173	0.239	0.159	0.462	0.488	0.508	0.415	0.334	0.521	0.563	–	0.664
NCI-H2087	1.12	1.31	1.09	1.19	0.696	0.674	0.694	0.533	0.338	0.808	0.669	0.583	0.647	0.853	0.204	0.14	0.292	0.256
NCI-H1734	0.568	0.533	0.371	0.559	0.416	0.436	0.371	0.412	0.386	0.726	0.686	0.822	0.642	0.375	0.655	0.641	0.66	0.643
HCC-44	0.945	0.975	1.2	1.03	0.668	0.649	0.708	0.658	0.669	1.1	1.05	1.11	1.04	1.18	1.01	1	1.02	1.14
NCI-H2170	0.774	–	0.685	0.766	0.26	0.263	0.289	0.325	0.305	0.731	0.663	0.914	0.551	0.484	0.888	–	0.846	0.89
PC-3 [JPC-3]	–	–	0.785	0.94	0.464	1.1	0.775	0.84	0.785	0.877	0.699	1.12	0.638	0.514	–	–	0.649	0.802
NCI-H1651	0.407	0.407	0.4	0.467	0.54	0.575	0.532	0.57	0.523	0.534	0.619	0.552	0.517	0.504	0.805	0.741	0.773	0.827
NCI-H460	0.579	0.604	–	0.619	0.0613	0.0659	0.0561	0.0523	0.0728	0.717	0.788	0.938	0.564	0.434	0.137	0.131	0.138	0.218
LOU-NH91	0.735	0.682	0.594	0.816	0.387	0.368	0.493	0.508	0.63	0.936	0.785	0.823	0.715	0.556	0.743	0.656	0.642	0.861
RERF-LC-KJ	0.874	1.01	0.663	1.08	0.466	0.48	0.464	0.463	0.375	0.634	0.707	0.754	0.504	0.548	0.826	0.921	0.872	0.783
EKVX	0.689	–	0.683	0.6	0.438	0.391	0.486	0.382	0.403	0.584	0.657	0.928	0.597	0.456	0.316	–	0.406	0.476
NCI-H441	1.09	1.1	1.16	1.03	0.259	0.213	0.285	0.255	0.251	0.681	0.716	0.961	0.603	0.401	0.434	0.431	0.611	0.472
NCI-H1395	0.397	0.411	0.381	0.373	0.736	0.826	0.643	0.74	0.74	0.742	0.565	0.773	0.62	0.537	1.04	1.03	0.89	0.971
CAL-12T	0.594	0.617	0.535	0.593	1.17	1.18	1.22	0.976	0.527	0.755	0.783	0.948	0.468	0.64	0.28	0.289	0.438	0.442
201T	0.652	0.515	0.604	0.617	0.316	0.348	0.313	0.332	0.305	0.928	0.928	0.949	0.842	0.831	0.702	0.681	0.752	0.779

Cell Line	relative viability (Vemurafenib + AZD7762; first compound 0.03162 µM)	relative viability (Vemurafenib + AZD7762; first compound 0.1 µM)	relative viability (Vemurafenib + AZD7762; first compound 0.3162 µM)	relative viability (Vemurafenib + AZD7762; first compound 1 µM)	relative viability (OSI-027 + Pemetrexed; first compound 0.01 µM)	relative viability (OSI-027 + Pemetrexed; first compound 0.03162 µM)	relative viability (OSI-027 + Pemetrexed; first compound 0.1 µM)	relative viability (OSI-027 + Pemetrexed; first compound 0.3162 µM)	relative viability (OSI-027 + Pemetrexed; first compound 1 µM)	relative viability (Alpelisib + Vorinostat; first compound 0.04 µM)	relative viability (Alpelisib + Vorinostat; first compound 0.1265 µM)	relative viability (Alpelisib + Vorinostat; first compound 0.4 µM)	relative viability (Alpelisib + Vorinostat; first compound 1.265 µM)	relative viability (Alpelisib + Vorinostat; first compound 4 µM)	relative viability (Vemurafenib + Trametinib; first compound 0.03162 µM)	relative viability (Vemurafenib + Trametinib; first compound 0.1 µM)	relative viability (Vemurafenib + Trametinib; first compound 0.3162 µM)	relative viability (Vemurafenib + Trametinib; first compound 1 µM)
LC-2-ad	0.831	0.615	0.749	0.818	0.279	0.239	0.273	0.283	0.271	0.664	0.721	0.744	0.575	0.496	0.868	0.815	0.998	0.921
NCI-H1793	0.445	0.243	0.131	0.492	0.795	0.866	0.468	0.391	0.209	0.62	0.977	0.839	0.598	0.325	0.397	0.387	0.467	0.591
LCLC-103H	0.757	0.741	0.617	0.694	0.481	0.47	0.481	0.446	0.52	0.74	0.744	0.801	0.669	0.624	0.668	0.619	0.685	0.768
NCI-H1944	0.515	–	0.426	0.57	0.657	0.691	0.77	0.59	0.519	0.538	0.554	0.597	0.399	0.326	0.453	–	0.41	0.423
NCI-H650	0.854	1.03	0.419	0.906	0.878	1.03	0.836	0.671	0.367	0.394	0.314	0.538	0.35	0.325	1.05	0.944	0.808	1.09
ChaGo-K-1	0.818	0.853	0.738	0.882	0.259	0.311	0.251	0.337	0.262	0.698	0.759	0.825	0.573	0.564	0.834	0.875	0.868	0.898
NCI-H2347	0.744	0.744	0.664	0.884	0.438	0.439	0.484	0.404	0.427	0.524	0.598	0.766	0.555	0.49	0.266	0.215	0.263	0.251
PC-14	0.272	–	–	0.356	0.136	0.149	0.149	0.139	0.191	0.771	0.681	0.717	0.432	0.624	0.735	–	0.862	0.803
NCI-H1648	–	0.571	1.23	0.779	0.849	0.825	–	0.656	0.701	0.418	0.457	0.714	0.317	0.324	–	0.326	0.569	0.58
LXF-289	1.04	1.12	1.04	1.25	0.939	0.841	1.04	0.974	0.837	0.741	0.685	0.942	0.723	0.766	0.656	0.599	0.697	0.733
NCI-H596	1.11	1.05	0.801	1.02	0.436	0.576	0.463	0.475	0.504	0.484	0.837	0.629	0.328	0.267	0.792	0.723	0.885	0.888
NCI-H358	0.551	–	0.621	0.632	0.185	0.171	0.176	0.132	0.151	0.686	0.563	0.768	0.428	0.321	0.155	0.119	0.15	0.175
NCI-H1355	0.672	0.663	0.603	0.698	1.07	1.06	1	0.777	0.572	0.626	0.609	0.677	0.529	0.398	0.454	0.35	0.464	0.523
SW 900	0.575	0.469	0.618	0.563	0.368	0.56	0.477	0.508	0.406	0.497	–	0.587	0.368	0.461	0.939	0.593	0.778	0.868
HCC-78	0.513	0.493	0.65	0.777	0.954	0.918	0.911	0.913	0.887	0.363	0.392	0.478	0.326	0.342	0.783	0.609	1.06	0.838
NCI-H322M	0.559	–	0.543	0.51	0.602	0.608	0.633	0.556	0.519	0.897	0.962	0.954	0.733	0.634	0.462	–	0.723	0.547
